From PMC4515785 (Journal of Medicinal Chemistry, 2015)
pEC50: −log10 of the molar value. Marks after values point to notes of the source that are not given here.

Columns and labels:
[1] = test system: T. cruzi Tulahuen strain expressing β-galactosidase; experiment: Trypanosoma cruzi intracellular amastigote assay in 3T3 cells; assay type: cell-based; conditions: for T. cruzi EC50 / pEC50: intracellular amastigotes in 3T3 cells, 96 h; for pEC50: read-out: T. cruzi EC50
[2] = plasma protein binding; assay type: in vitro ADME
[3] = Human liver microsomes intrinsic clearance; assay type: in vitro ADME
[4] = test system: P. falciparum D6; experiment: Plasmodium falciparum SYBR Green fluorescence; assay type: cell-based; conditions: D6, drug sensitive strain; for pEC50: read-out: P. falciparum D6 EC50
[5] = test system: L. major promastigotes; experiment: Leishmania major promastigote assay; assay type: cell-based; conditions: for pEC50: read-out: L. major EC50 Promast
[6] = test system: HepG2 cells; experiment: HepG2 toxicity assay; assay type: cell-based; conditions: 48 h, MTT
[7] = test system: T. brucei; conditions: read-out: T. brucei EC50; previously reported quinazoline analogs; cited from earlier work
[8] = male rat hepatocytes intrinsic clearance; assay type: in vitro ADME

In the case of `CN1CCCN(S(=O)(=O)c2ccc(-c3ccc4nccc(Nc5ccc(OCc6cccc(F)c6)c(Cl)c5)c4c3)cc2)CC1` [compound 51, N-(3-Chloro-4-((3-fluorobenzyl)oxy)phenyl)-6-(4-((4-methyl-1,4-diazepan-1-yl)sulfonyl)phenyl)quinolin-4-amine], the “T. cruzi EC50” value [1] was “submicromolar potency”.
With `CN1CCCN(S(=O)(=O)c2ccc(-c3ccc4c(Nc5ccc(OCc6cccc(F)c6)c(Cl)c5)cnnc4c3)cc2)CC1` [compound 68, N-(3-Chloro-4-((3-fluorobenzyl)oxy)phenyl)-7-(4-((4-methyl-1,4-diazepan-1-yl)sulfonyl)phenyl)cinnolin-4-amine] the “plasma protein binding (% free)” value [2] was under 1 % free and the microsomal CLint [3] was 99.3 µL/min/mg.
With `O=S(=O)(c1ccc(-c2ccc3nccc(Nc4ccc(OCc5ccccc5)c(Cl)c4)c3c2)cc1)N1CCOCC1` [compound 47, N-(4-(Benzyloxy)-3-chlorophenyl)-6-(4-(morpholinosulfonyl)phenyl)quinolin-4-amine] the “plasma protein binding (% free)” value [2] was under 1 % free and the microsomal CLint [3] was 78.9 µL/min/mg.
With `CN1CCCN(S(=O)(=O)c2ccc(-c3ccc4c(Nc5ccc(OCc6cccc(F)c6)c(Cl)c5)ccnc4c3)cc2)CC1` [compound 52, N-(3-Chloro-4-((3-fluorobenzyl)oxy)phenyl)-7-(4-((4-methyl-1,4-diazepan-1-yl)sulfonyl)phenyl)quinolin-4-amine] the “T. cruzi EC50” value [1] was “submicromolar potency”.
With `CN1CCCN(S(=O)(=O)c2ccc(-c3ccc4ccnc(Nc5ccc(OCc6cccc(F)c6)c(Cl)c5)c4c3)cc2)CC1` [compound 59, N-(3-Chloro-4-((3-fluorobenzyl)oxy)phenyl)-7-(4-((4-methyl-1,4-diazepan-1-yl)sulfonyl)phenyl)isoquinolin-1-amine] the “fold less potent against T. cruzi” value ([1]; compared with the quinazoline 4) was 10 fold.
For “N-(3-Chloro-4-((3-fluorobenzyl)oxy)phenyl)-6-(4-((4-methylpiperazin-1-yl)sulfonyl)phenyl)thieno[3,2-d]pyrimidin-4-amine [compound 89]”, the pEC50 [4] was 7.68, the pEC50 [5] was 5.47 and the pEC50 [1] was 5.26. For the same compound, the “HepG2 TC50” value [6] was over 15 µM.
In the case of `CN1CCCN(S(=O)(=O)c2ccc(-c3ccc4c(Nc5ccc(OCc6cccc(F)c6)c(Cl)c5)nncc4c3)cc2)CC1` [compound 76, N-(3-Chloro-4-((3-fluorobenzyl)oxy)phenyl)-6-(4-((4-methyl-1,4-diazepan-1-yl)sulfonyl)phenyl)phthalazin-1-amine], the “P. falciparum D6 EC50” value [4] was “equipotent to 5”.
In the case of `O=S(=O)(c1ccc(-c2ccc3ccnc(Nc4ccc(OCc5ccccc5)c(Cl)c4)c3c2)cc1)N1CCOCC1` [compound 55, N-(4-(Benzyloxy)-3-chlorophenyl)-7-(4-(morpholinosulfonyl)phenyl)isoquinolin-1-amine], the “L. major EC50 Promast” value [5] was “complete loss in activity”.
In the case of `CN1CCCN(S(=O)(=O)c2ccc(-c3ccc4ncnc(Nc5ccc(OCc6cccc(F)c6)c(Cl)c5)c4c3)cc2)CC1` [compound 4], the pEC50 [7] is listed as 6.09.
With `O=S(=O)(c1ccc(-c2ccc3ncnc(Nc4ccc(OCc5ccccc5)c(Cl)c4)c3c2)cc1)N1CCOCC1` [compound 3] the “T. cruzi % inh at 10 μM” value ([1]; 10 μM) was “(9.5)* %”.
For “N-(4-(Benzyloxy)-3-chlorophenyl)-6-(4-(morpholinosulfonyl)phenyl)thieno[3,2-d]pyrimidin-4-amine [compound 87]”, the pEC50 [4] was 6.21, the pEC50 [5] was under 5.52 and the pEC50 [1] was under 4.30. For the same compound, the “HepG2 TC50” value [6] was over 5 µM.
For “N-(3-Chloro-4-((3-fluorobenzyl)oxy)phenyl)-6-(4-((4-methyl-1,4-diazepan-1-yl)sulfonyl)phenyl)thieno[3,2-d]pyrimidin-4-amine [compound 91]”, the pEC50 [1] was under 4.30 and the “HepG2 TC50” value [6] was over 15 µM.
For `CN1CCN(S(=O)(=O)c2ccc(-c3ccc4ncnc(Nc5ccc(OCc6cccc(F)c6)c(Cl)c5)c4c3)cc2)CC1` [compound 5], the pEC50 [7] is listed as 6.28.
In the case of `CN1CCN(S(=O)(=O)c2ccc(-c3ccc4c(Nc5ccc(OCc6cccc(F)c6)c(Cl)c5)ccnc4c3)cc2)CC1` [compound 50, N-(3-Chloro-4-((3-fluorobenzyl)oxy)phenyl)-7-(4-((4-methylpiperazin-1-yl)sulfonyl)phenyl)quinolin-4-amine], the “plasma protein binding (% free)” value [2] was under 1 % free, the “T. cruzi EC50” value [1] was “submicromolar potency” and the microsomal CLint [3] was 143 µL/min/mg.
In the case of “N-(4-(Benzyloxy)-3-chlorophenyl)-6-(4-(morpholinosulfonyl)phenyl)thieno[2,3-d]pyrimidin-4-amine [compound 88]”, the pEC50 [4] was 6.66, the pEC50 [5] was under 4.82 and the pEC50 [1] was under 4.30. For the same compound, the “HepG2 TC50” value [6] was over 15 µM.
For “N-(3-Chloro-4-((3-fluorobenzyl)oxy)phenyl)-6-(4-((4-methylpiperazin-1-yl)sulfonyl)phenyl)thieno[2,3-d]pyrimidin-4-amine [compound 90]”, the pEC50 [4] was 7.37, the pEC50 [5] was under 4.82 and the pEC50 [1] was 4.32. The “HepG2 TC50” value [6] was over 15 µM.
In the case of `Fc1cccc(COc2ccc(Nc3ncnc4ccc(-c5cccc(N6CCOCC6)c5)cc34)cc2Cl)c1` [compound 1], the hepatocyte CLint [8] was 44.5 µL/min/1e6 cells, the “plasma protein binding (% free)” value [2] was under 1 % free and the microsomal CLint [3] was 63 µL/min/mg.
With “N-(3-Chloro-4-((3-fluorobenzyl)oxy)phenyl)-6-(4-((4-methyl-1,4-diazepan-1-yl)sulfonyl)phenyl)thieno[2,3-d]pyrimidin-4-amine [compound 92]” the pEC50 [1] was 4.82 and the “HepG2 TC50” value [6] was over 15 µM.
With “N-(3-Chloro-4-((3-fluorobenzyl)oxy)phenyl)-6-(3-morpholinophenyl)thieno[3,2-d]pyrimidin-4-amine [compound 85]” the pEC50 [4] was 6.07, the pEC50 [5] was under 4.82 and the pEC50 [1] was under 4.30. The “HepG2 TC50” value [6] was over 15 µM.
In the case of “N-(3-Chloro-4-((3-fluorobenzyl)oxy)phenyl)-6-(3-morpholinophenyl)thieno[2,3-d]pyrimidin-4-amine [compound 86]”, the pEC50 [4] was 6.28, the pEC50 [5] was under 4.82 and the pEC50 [1] was 5.66. The “HepG2 TC50” value [6] was over 15 µM.
With `CN1CCN(S(=O)(=O)c2ccc(-c3ccc4nccc(Nc5ccc(OCc6cccc(F)c6)c(Cl)c5)c4c3)cc2)CC1` [compound 49, N-(3-Chloro-4-((3-fluorobenzyl)oxy)phenyl)-6-(4-((4-methylpiperazin-1-yl)sulfonyl)phenyl)quinolin-4-amine] the “P. falciparum D6 EC50” value [4] was “complete loss in activity”.
With `CN1CCCN(S(=O)(=O)c2ccc(-c3ccc4ncc(C#N)c(Nc5ccc(OCc6cccc(F)c6)c(Cl)c5)c4c3)cc2)CC1` [compound 83, 4-((3-Chloro-4-((3-fluorobenzyl)oxy)phenyl)amino)-6-(4-((4-methyl-1,4-diazepan-1-yl)sulfonyl)phenyl)quinoline-3-carbonitrile] the “plasma protein binding (% free)” value [2] was under 1 % free, the “fold increase in T. cruzi potency over matched des-fluoro analog” value ([1]; 83 vs 84) was 10 fold and the “fold improvement in T. cruzi potency over matched quinazoline analog 4” value ([1]; vs 4) was 5 fold. For the same compound, the microsomal CLint [3] was 152 µL/min/mg.
